In paper PMC12470154, “In Vitro Evaluation of Antimicrobial Amyloidogenic Peptides for the Treatment of Early and Mature Bacterial Biofilms” (International Journal of Molecular Sciences, 2025):

What was measured:
[1] = test system: E. coli (MG1655 strain); assay: Antibacterial activity on 0.7% agar (inhibition zone); type: cell-based, Escherichia coli; parameters: key: +: The presence of a bacterial growth inhibition zone; −: The absence of a bacterial growth inhibition zone; settings: drop on 0.7% agar, 24 h
Description: (§1) Drops of the samples were applied to the surface of solidified 0.7% agar at the concentrations indicated in Table 2 and Supplementary S2 (Figures S1–S4). After 24 h of incubation, the results were evaluated based on the presence or absence (+/−) of inhibition zones.
(§2) Once the agar solidified, drops of peptide samples at the concentrations 1, 0.1, 0.01, and 0.001 mg/mL were applied to the agar surface.

[2] = test system: MRSA (SA 180-F strain); assay: Antibacterial activity in liquid medium (optical density); type: cell-based, methicillin-resistant Staphylococcus aureus; parameters: key to change of optical density vs negative control: ↓: Decrease in the parameter (optical density) compared to the negative control; −: No decrease in the parameter; ↑: Reverse effect (increase in the optical density compared to the control); settings: 24 h, 37 °C; for change of optical density vs negative control: OD 595 nm
Description: To evaluate the antibacterial activity of peptides in liquid culture, a stationary-phase culture of the tested bacterial strain was diluted 100-fold in fresh medium containing peptides or gentamicin (positive control) at the specified concentrations. A total volume of 200 µL was added to each well of a 96-well round-bottom microtiter plate. After 24 h of incubation at 37 °C, the samples were transferred to a flat-bottom 96-well microtiter plate, and the optical density was measured at 595 nm. Separately, the optical density of medium containing peptides but no bacteria was measured. These values were used as baseline (zero) readings for subsequent data analysis.

[3] = test system: S. aureus (129B strain); assay: Early biofilm formation, crystal violet staining; type: cell-based, Staphylococcus aureus; parameters: key: ↓: Decrease in the parameter (optical density) compared to the negative control; −: No decrease in the parameter; ↑: Reverse effect (increase in the optical density compared to the control); settings: peptide present from inoculation, 24 h, OD 595 nm
Description: (§3) After 24 h of incubation, the medium was removed. To assess the total biofilm biomass, the wells were rinsed with sterile PBS solution and stained with 0.1% crystal violet. The dye bound to the surface was then removed using 95% ethanol. To assess the presence of metabolically active cells, 0.3% MTT (PanEco Ltd., Moscow, Russia) solution was added to each well, and the plates were incubated at 37 °C for 2 h. After incubation, the MTT solution was removed, 150 µL of DMSO (Chimmed, Moscow, Russia) and 25 µL of glycine buffer were added to each well, and the plates were left at room temperature for 15 min. The resulting solutions were transferred to a flat-bottom 96-well plate, and optical density was measured at 595 nm.

[4] = test system: P. aeruginosa (2943 strain); assay: Mature biofilms, MTT assay; type: cell-based, Pseudomonas aeruginosa; parameters: key: ↓: Decrease in the parameter (optical density) compared to the negative control; −: No decrease in the optical density; ↑: Reverse effect (increase in the optical density compared to the control); settings: mature biofilm: peptide added after 24 h, further 24 h, 0.01-10 mg/mL
Description: as §3
(§4) A stationary-phase culture of the tested strain was diluted 100-fold in fresh medium (200 µL per well) and added to the wells of a 96-well round-bottom plate. […] After another 24 h, the medium was removed and the wells were rinsed with sterile PBS to eliminate planktonic cells. The procedures for assessing total biofilm biomass and cell metabolic activity using crystal violet and MTT assays were performed in the same manner as described above for early-stage biofilm experiments.

[5] = test system: MRSA (SA 180-F strain); assay: Mature biofilms, MTT assay; type: cell-based, methicillin-resistant Staphylococcus aureus; parameters: key: ↓: Decrease in the parameter (optical density) compared to the negative control; −: No decrease in the parameter; ↑: Reverse effect (increase in the optical density compared to the control); settings: mature biofilm: peptide added after 24 h, further 24 h; 0.01-10 mg/mL
Description: as §3, §4

[6] = test system: MRSA (SA 180-F strain); assay: Mature biofilms, MTT assay; type: cell-based, methicillin-resistant Staphylococcus aureus; settings: mature biofilm
Description: as §3, §4

[7] = test system: MRSA (SA 180-F strain); assay: Mature biofilms, crystal violet staining; type: cell-based, methicillin-resistant Staphylococcus aureus; parameters: key: ↓: Decrease in the parameter (optical density) compared to the negative control; −: No decrease in the parameter; ↑: Reverse effect (increase in the optical density compared to the control); settings: mature biofilm: peptide added after 24 h, further 24 h, 0.01-10 mg/mL
Description: as §3, §4

[8] = test system: S. aureus (129B strain); assay: Early biofilm formation, MTT assay; type: cell-based, Staphylococcus aureus; parameters: key: ↓: Decrease in the parameter (optical density) compared to the negative control; −: No decrease in the parameter; ↑: Reverse effect (increase in the optical density compared to the control); settings: 24 h, 0.3% MTT 2 h 37 °C, OD 595 nm
Description: as §3

[9] = test system: P. aeruginosa (2943 strain); assay: Early biofilm formation, MTT assay; type: cell-based, Pseudomonas aeruginosa; parameters: key: ↓: Decrease in the parameter (optical density) compared to the negative control; −: No decrease in the parameter; ↑: Reverse effect (increase in the optical density compared to the control); settings: 24 h, 0.3% MTT 2 h 37 °C, OD 595 nm
Description: as §3

[10] = test system: P. aeruginosa (2943 strain); assay: Antibacterial activity on 0.7% agar (inhibition zone); type: cell-based, Pseudomonas aeruginosa; parameters: key: +: The presence of a bacterial growth inhibition zone; −: The absence of a bacterial growth inhibition zone; settings: drop on 0.7% agar, 24 h
Description: as §1, §2

[11] = test system: MRSA (SA 180-F strain); assay: Early biofilm formation, crystal violet staining; type: cell-based, methicillin-resistant Staphylococcus aureus; parameters: key: ↓: Decrease in the parameter (optical density) compared to the negative control; −: No decrease in the optical density; ↑: Reverse effect (increase in the optical density compared to the control); settings: peptide present from inoculation, 24 h, OD 595 nm
Description: as §3

| Sequence | bacterial growth inhibition zone ([1]; 0.001 mg/mL) | bacterial growth inhibition zone ([1]; 0.01 mg/mL) | bacterial growth inhibition zone ([1]; 0.1 mg/mL) | bacterial growth inhibition zone ([1]; 1 mg/mL) | concentration given with ↓ (decrease in optical density) [2] [mg/mL] | change of optical density vs negative control [2] | change of optical density after crystal violet staining vs negative control [3] | change of optical density after MTT assay vs negative control [5] | concentration given with ↓ (MTT) [6] [mg/mL] | change of optical density after crystal violet staining vs negative control [7] | change of optical density after MTT assay vs negative control [8] | bacterial growth inhibition zone ([10]; 0.001 mg/mL) | bacterial growth inhibition zone ([10]; 0.01 mg/mL) | bacterial growth inhibition zone ([10]; 0.1 mg/mL) | bacterial growth inhibition zone ([10]; 1 mg/mL) | change of optical density after crystal violet staining vs negative control [11] | other results |
| --- | --- | --- | --- | --- | --- | --- | --- | --- | --- | --- | --- | --- | --- | --- | --- | --- | --- |
| RKKRRQRRRGGGGVVVHINGGKFGGGGSRQIKIWFQNRRMKWKK [R44K^S] | − | − | − | − | 0.1 | ↓ (0.1 mg/mL) | ↑ | ↓ (0.01 mg/mL) | 0.01 | ↑ | ↑ | − | − | − | + |  | change of optical density after MTT assay vs negative control ([4]; listed as R44K^P): −; change of optical density after MTT assay vs negative control ([9]; listed as R44K^P): ↓ (10 mg/mL); bacterial growth inhibition zone ([10]; 1 mg/mL, listed as R44K^P): − |
| ITDFGIFIGLGGGGSRQIKIWFQNRRMKWKK [I31K^P] |  |  |  |  | 1 | ↓ (1 mg/mL) | ↑ | ↓ (0.01 mg/mL) | 0.01 | ↑ | ↑ |  |  |  |  | − | metabolic activity of cells within mature biofilms (MTT) ([6]; 0.01, 0.1, 1, and 10 mg/mL): decreased the metabolic activity |
| RKKRRQRRRGGGGITDFGIFIGL [R23L^P] | − | − | − | + | 0.1 | ↓ (0.1 mg/mL) | ↑ | ↓ (0.01 mg/mL) | 0.01 |  | ↑ | − | − | − | + |  | change of optical density after MTT assay vs negative control [9]: ↑ |
| VTDFGVFVEIGGGGSRQIKIWFQNRRMKWKK [V31K^T, amyloidogenic fragment of S1 of T. thermophilus linked via glycine-rich linker to antennapedia peptide] | − | − | − | − | 1 | ↓ (1 mg/mL) | ↑ | ↓ (0.01 mg/mL) | 0.01 |  | ↑ | − | − | − | − |  | bacterial growth inhibition zone ([1]; 1 mg/mL, listed as V31K^S): +; change of optical density vs negative control ([2]; listed as V31K^S): ↓ (0.1 mg/mL); concentration given with ↓ (decrease in optical density) ([2]; listed as V31K^S): 0.1 mg/mL; change of optical density after MTT assay vs negative control ([4]; listed as V31K^S): −; change of optical density after crystal violet staining vs negative control ([7]; listed as V31K^S): ↑; change of optical density after MTT assay vs negative control ([9]; listed as V31K^S): ↓ (10 mg/mL) |
| RKKRRQRRRGGGGVTDFGVFVEI [R23I^T, TAT cell-penetrating peptide linked via glycine linker to amyloidogenic fragment of S1 ribosomal protein of T. thermophilus] | − | − | − | − | 1 | ↓ (1 mg/mL) | ↑ |  |  |  | ↑ | − | − | − | + | − | change of optical density after MTT assay vs negative control [4]: − |
